Assay results: US20240270809A1, “ORAL GLP RECEPTOR AGONISTS” (priority 2020, published 2024)
Positions of bridges follow the written chain, without caps; N, C: chain ends. Non-standard residues stand in square brackets, D forms with d. Residues, ends and D or L forms follow the SMILES beside them. *: point of attachment. Malonyl(2,2-Me2,histaminyl) = CC(C)(C(=O)NCCc1cnc[nH]1)C(=O)*; Ala(1H-tetrazol-5-yl) = N[C@@H](Cc1nnn[nH]1)C(=O)O; αMeL = CC(C)C[C@](C)(N)C(=O)O; Nle = CCCC[C@H](N)C(=O)O; Aib = CC(C)(N)C(=O)O

Key:
human GLP2 receptor = target: T1, human GLP2 receptor (Homo sapiens, UniProt O95838); assay: cAMP accumulation assay, functional agonism of human GLP2 receptor; format: cell-based; conditions: HEK cells infected with human GLP2 receptor BacMam virus, HTRF cAMP; for Emax: HEK293, read-out: Human GLP-2R agonist cAMP Emax; for EC50: read-out: Human GLP-2R agonist cAMP pEC50 (converted)
T1 construct: expressed in transfected cells; host or cells: HEK cells, BacMam virus transduction
T1 sequence (O95838 1-553): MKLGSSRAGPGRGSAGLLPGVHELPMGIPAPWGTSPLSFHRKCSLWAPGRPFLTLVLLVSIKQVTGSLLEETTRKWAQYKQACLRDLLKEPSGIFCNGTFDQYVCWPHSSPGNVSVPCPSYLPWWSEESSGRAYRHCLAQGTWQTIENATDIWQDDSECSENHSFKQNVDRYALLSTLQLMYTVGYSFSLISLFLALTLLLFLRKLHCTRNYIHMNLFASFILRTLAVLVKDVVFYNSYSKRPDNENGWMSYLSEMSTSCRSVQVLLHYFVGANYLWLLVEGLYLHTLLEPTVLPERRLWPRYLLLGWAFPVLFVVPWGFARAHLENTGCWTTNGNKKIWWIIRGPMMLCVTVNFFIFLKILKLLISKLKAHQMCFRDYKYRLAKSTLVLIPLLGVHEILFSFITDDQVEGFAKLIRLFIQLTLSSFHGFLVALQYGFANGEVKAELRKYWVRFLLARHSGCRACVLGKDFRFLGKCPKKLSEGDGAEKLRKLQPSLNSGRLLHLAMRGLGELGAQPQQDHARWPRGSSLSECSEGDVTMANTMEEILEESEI
In short: (§1)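 Agonist-driven cAMP production was quantified by homogeneous time-resolved fluorescence. Receptor expression in HEK cells came from a 24-hour BacMam infection, and cells were frozen ahead of the assay. Incubation lasted 45 min at 37° C in HBSS supplemented with 0.5 mM IBMX.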

human GLP1 receptor = target: T2, human GLP1 receptor (Homo sapiens, UniProt P43220); assay: cAMP accumulation assay, functional agonism of human GLP1 receptor; format: cell-based; conditions: HEK cells infected with human GLP1 receptor BacMam virus, HTRF cAMP; for Emax: HEK293, read-out: Human GLP-1R agonist cAMP Emax; for EC50: read-out: Human GLP-1R agonist cAMP pEC50 (converted)
T2 construct: expressed in transfected cells; host or cells: HEK cells, BacMam virus transduction
T2 sequence (P43220 24-463): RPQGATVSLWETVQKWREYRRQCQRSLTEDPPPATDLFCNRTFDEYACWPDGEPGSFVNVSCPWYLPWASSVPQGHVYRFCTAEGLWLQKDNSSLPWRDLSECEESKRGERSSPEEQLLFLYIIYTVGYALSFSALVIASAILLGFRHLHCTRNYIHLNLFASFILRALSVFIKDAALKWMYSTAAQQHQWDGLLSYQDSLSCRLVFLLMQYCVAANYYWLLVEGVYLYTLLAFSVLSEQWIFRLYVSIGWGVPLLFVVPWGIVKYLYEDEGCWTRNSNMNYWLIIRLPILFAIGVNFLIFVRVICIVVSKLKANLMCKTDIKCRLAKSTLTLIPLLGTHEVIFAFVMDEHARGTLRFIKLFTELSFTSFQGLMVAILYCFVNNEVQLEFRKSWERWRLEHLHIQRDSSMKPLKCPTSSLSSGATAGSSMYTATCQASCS
In short: as §1

[1] = Stability of peptides in Fasted-State Simulated Intestinal Fluid (FaSSIF); format: in vitro ADME; conditions: FaSSIF with 10 mg/ml pancreatin; t=30 mins, 37° C., pH 6.5, 10 mg/ml pancreatin
mouse GLP2 receptor = target: T3, mouse GLP2 receptor (Mus musculus, UniProt Q5IXF8); assay: cAMP accumulation assay, functional agonism of mouse GLP2 receptor; format: cell-based; conditions: HEK cells transiently transfected with mouse GLP2 receptor, HTRF cAMP
T3 construct: expressed in transfected cells; host or cells: HEK cells, transient transfection with GeneJuice
T3 sequence (Q5IXF8 1-512): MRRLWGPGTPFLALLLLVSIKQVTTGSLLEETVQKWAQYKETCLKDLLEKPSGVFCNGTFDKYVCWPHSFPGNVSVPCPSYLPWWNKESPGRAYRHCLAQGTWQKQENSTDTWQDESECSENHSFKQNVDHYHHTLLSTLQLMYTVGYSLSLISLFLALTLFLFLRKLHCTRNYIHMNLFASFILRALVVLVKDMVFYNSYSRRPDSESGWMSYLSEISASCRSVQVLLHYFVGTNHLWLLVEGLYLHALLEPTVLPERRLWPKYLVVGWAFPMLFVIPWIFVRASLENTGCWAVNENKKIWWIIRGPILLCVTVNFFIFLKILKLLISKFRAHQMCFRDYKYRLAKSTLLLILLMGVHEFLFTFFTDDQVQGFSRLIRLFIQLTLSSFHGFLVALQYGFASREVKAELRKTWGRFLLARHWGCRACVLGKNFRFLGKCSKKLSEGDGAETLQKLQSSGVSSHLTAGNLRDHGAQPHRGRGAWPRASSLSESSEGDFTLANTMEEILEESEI
In short: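 pEC50 values come from four-parameter fits of HTRF cAMP signal, read after lysis and 1 h RT incubation. Compounds were incubated 45 min at 37 °C with previously frozen, transiently transfected HEK cells (8000/well) in HBSS containing 0.5 mM IBMX.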

Emax (human GLP2 receptor) | EC50 (human GLP2 receptor) | Emax (human GLP1 receptor) | EC50 (human GLP1 receptor) | remaining at 0.5 h [1] | Emax (mouse GLP2 receptor; HEK293, read-out: Mouse GLP-2R agonist cAMP Emax) | EC50 (mouse GLP2 receptor; read-out: Mouse GLP-2R agonist cAMP pEC50 (converted)) | SMILES
103% | 0.01 nM | 94.7% | 0.501 nM | 4.3% | – | – | CCCC[C@@H]1NC(=O)[C@H](CCC(=O)O)NC(=O)[C@@H](NC(=O)[C@H](CO)NC(=O)[C@H](Cc2ccccc2)NC(=O)[C@H](CO)NC(=O)CNC(=O)[C@H](CC(=O)O)NC(=O)C(C)(C)NC(=O)[C@@H](N)Cc2c[nH]cn2)CCCCNC(=O)C[C@@H](C(=O)N[C@H](C(=O)N[C@@H](CC(C)C)C(=O)N[C@@H](CC(=O)O)C(=O)N[C@H]2CCC(=O)NCCCC[C@@H](C(=O)N[C@@H](CC(=O)O)C(=O)N[C@@H](Cc3ccccc3)C(=O)N[C@H](C(=O)N[C@@H](CC(N)=O)C(=O)N[C@@H](Cc3c[nH]c4ccccc34)C(=O)N[C@@H](CC(C)C)C(=O)N[C@H](C(=O)N[C@@H](CCC(N)=O)C(=O)N[C@H]3CCC(=O)NCCCC[C@@H](C(N)=O)NC(=O)[C@H]([C@@H](C)O)NC(=O)[C@H]([C@@H](C)CC)NC(=O)[C@H](CCCCN)NC3=O)[C@@H](C)CC)[C@@H](C)CC)NC(=O)[C@H](C)NC(=O)[C@H](C)NC(=O)[C@H](CCCCN)NC2=O)[C@@H](C)CC)NC(=O)[C@@H](Cc2ccccc2)NC1=O [Example 4] (H-H[Aib]DGSFSKE[Nle][dF]DILDEKAAKDFINWLIQEKITK-NH2; lactam 8-12, 16-20, 29-33 (inferred); C-terminus assumed)
105% | 0.0794 nM | 95.3% | 0.251 nM | 22.3% | – | – | CCCC[C@@H]1NC(=O)[C@H](CCC(=O)O)NC(=O)[C@@H](NC(=O)[C@H](CO)NC(=O)[C@H](Cc2ccccc2)NC(=O)[C@H](CO)NC(=O)CNC(=O)[C@H](Cc2nn[nH]n2)NC(=O)C(C)(C)C(=O)NCCc2c[nH]cn2)CCCCNC(=O)C[C@@H](C(=O)N[C@@](C)(CC(C)C)C(=O)N[C@@H](CC(C)C)C(=O)N[C@@H](CC(=O)O)C(=O)N[C@H]2CCC(=O)NCCCC[C@@H](C(=O)N[C@@H](CC(=O)O)C(=O)N[C@@H](Cc3ccccc3)C(=O)N[C@H](C(=O)N[C@@H](CC(N)=O)C(=O)N[C@@H](Cc3c[nH]c4ccccc34)C(=O)N[C@@H](CC(C)C)C(=O)N[C@H](C(=O)N[C@@H](CCC(N)=O)C(=O)N[C@H](C(=O)N[C@H]3CCC(=O)NCCCC[C@@H](C(N)=O)NC(=O)[C@H]([C@@H](C)O)NC(=O)[C@H]([C@@H](C)CC)NC3=O)[C@@H](C)O)[C@@H](C)CC)[C@@H](C)CC)NC(=O)[C@H](C)NC(=O)[C@H](C)NC(=O)[C@H](CCCCN)NC2=O)NC(=O)[C@@H](Cc2ccccc2)NC1=O [Example 11] ({Malonyl(2,2-Me2,histaminyl)}-[Ala(1H-tetrazol-5-yl)]GSFSKE[Nle][dF]D[αMeL]LDEKAAKDFINWLIQTEITK-NH2; lactam 6-10, 14-18, 28-31 (inferred); C-terminus assumed)
105% | 0.0501 nM | 94.5% | 0.251 nM | 10.7% | – | – | CCCC[C@@H]1NC(=O)[C@H](CCC(=O)O)NC(=O)[C@@H](NC(=O)[C@H](CO)NC(=O)[C@H](Cc2ccccc2)NC(=O)[C@H](CO)NC(=O)CNC(=O)[C@H](Cc2nn[nH]n2)NC(=O)C(C)(C)C(=O)NCCc2c[nH]cn2)CCCCNC(=O)C[C@@H](C(=O)N[C@H](C(=O)N[C@@H](CC(C)C)C(=O)N[C@@H](CC(=O)O)C(=O)N[C@H]2CCC(=O)NCCCC[C@@H](C(=O)N[C@@H](CC(=O)O)C(=O)N[C@@H](Cc3ccccc3)C(=O)N[C@H](C(=O)N[C@@H](CC(N)=O)C(=O)N[C@@H](Cc3c[nH]c4ccccc34)C(=O)N[C@@H](CC(C)C)C(=O)N[C@H](C(=O)N[C@@H](CCC(N)=O)C(=O)N[C@H](C(=O)N[C@H]3CCC(=O)NCCCC[C@@H](C(N)=O)NC(=O)[C@H]([C@@H](C)O)NC(=O)[C@H]([C@@H](C)CC)NC3=O)[C@@H](C)O)[C@@H](C)CC)[C@@H](C)CC)NC(=O)[C@H](C)NC(=O)C(C)(C)NC(=O)[C@H](CCCCN)NC2=O)[C@@H](C)CC)NC(=O)[C@@H](Cc2ccccc2)NC1=O [Example 12] ({Malonyl(2,2-Me2,histaminyl)}-[Ala(1H-tetrazol-5-yl)]GSFSKE[Nle][dF]DILDEK[Aib]AKDFINWLIQTEITK-NH2; lactam 6-10, 14-18, 28-31; C-terminus assumed)
104% | 0.0316 nM | 92.5% | 0.251 nM | 3.8% | – | – | CCCC[C@@H]1NC(=O)[C@H](CCC(=O)O)NC(=O)[C@@H](NC(=O)[C@H](CO)NC(=O)[C@H](Cc2ccccc2)NC(=O)[C@H](CO)NC(=O)CNC(=O)[C@H](Cc2nn[nH]n2)NC(=O)C(C)(C)C(=O)NCCc2c[nH]cn2)CCCCNC(=O)C[C@@H](C(=O)N[C@H](C(=O)N[C@@H](CC(C)C)C(=O)N[C@@H](CC(=O)O)C(=O)N[C@H]2CCC(=O)NCCCC[C@@H](C(=O)N[C@@H](CC(=O)O)C(=O)N[C@@H](Cc3ccccc3)C(=O)N[C@H](C(=O)N[C@@H](CC(N)=O)C(=O)N[C@@H](Cc3c[nH]c4ccccc34)C(=O)N[C@@H](CC(C)C)C(=O)N[C@H](C(=O)N[C@@H](CCC(N)=O)C(=O)N[C@H](C(=O)N[C@H]3CCC(=O)NCCCC[C@@H](C(=O)N4CCC[C@H]4C(N)=O)NC(=O)[C@H]([C@@H](C)O)NC(=O)[C@H]([C@@H](C)CC)NC3=O)[C@@H](C)O)[C@@H](C)CC)[C@@H](C)CC)NC(=O)[C@H](C)NC(=O)[C@H](C)NC(=O)[C@H](CCCCN)NC2=O)[C@@H](C)CC)NC(=O)[C@@H](Cc2ccccc2)NC1=O [Example 13] ({Malonyl(2,2-Me2,histaminyl)}-[Ala(1H-tetrazol-5-yl)]GSFSKE[Nle][dF]DILDEKAAKDFINWLIQTEITKP-NH2; lactam 6-10, 14-18, 28-31 (inferred); C-terminus assumed)
101% | 0.00126 nM | 99.3% | 20 nM | – | 99% | 0.02 nM | CCCC[C@H](NC(=O)[C@H](CCC(=O)O)NC(=O)[C@H](CC(=O)O)NC(=O)[C@H](CO)NC(=O)[C@H](Cc1ccccc1)NC(=O)[C@H](CO)NC(=O)CNC(=O)[C@H](CC(=O)O)NC(=O)C(C)(C)NC(=O)[C@@H](N)Cc1c[nH]cn1)C(=O)N[C@H](Cc1ccccc1)C(=O)N[C@H](C(=O)N[C@H](C(=O)N[C@@H](CC(C)C)C(=O)N[C@@H](CC(=O)O)C(=O)N[C@H]1CCCCNC(=O)CC[C@@H](C(=O)N[C@@H](CC(=O)O)C(=O)N[C@@H](Cc2ccccc2)C(=O)N[C@H](C(=O)N[C@@H](CC(N)=O)C(=O)N[C@@H](Cc2c[nH]c3ccccc23)C(=O)N[C@@H](CC(C)C)C(=O)N[C@H](C(=O)N[C@@H](CCC(N)=O)C(=O)N[C@H](C(=O)N[C@@H](CCCCN)C(=O)N[C@H](C(=O)N[C@H](C(=O)N[C@@H](CC(=O)O)C(N)=O)[C@@H](C)O)[C@@H](C)CC)[C@@H](C)O)[C@@H](C)CC)[C@@H](C)CC)NC(=O)[C@H](C)NC(=O)[C@H](C)NC(=O)[C@H](CCCCN)NC1=O)[C@@H](C)CC)[C@@H](C)O [Example 102] (H-H[Aib]DGSFSDE[Nle][dF]TILDKKAAEDFINWLIQTKITD-NH2; lactam 16-20; N-terminus and C-terminus assumed)
